Where “and” joins values, the source holds several entries; their conditions need not be identical. Equal values may be shown once. Read-outs that look alike come from different tables or passages of the source.
Key:
Assay in all cases: Disruption of BRAF RBD interaction with Ras (FRET / MOA assay, with Cyclophilin A)
Type in all cases: biochemical
KRAS G12D = KRAS G12D (Homo sapiens, UniProt P01116+P62937, G12D); conditions: read-out: KRAS G12D FRET data, IC50
Text: (§1) This protocol may also be executed substituting other Ras proteins or nucleotides.
(§2) The purpose of this biochemical assay was to measure the ability of test compounds to facilitate ternary complex formation between a nucleotide-loaded K-Ras isoform and Cyclophilin A; the resulting ternary complex disrupts binding to a BRAF^RBD construct, inhibiting K-Ras signaling through a RAF effector. Data is reported as IC50 values.
(§3) Compound was present in plate wells as a 10-point 3-fold dilution series starting at a final concentration of 30 μM. After incubation at 25° C. for 3 hours, a mixture of Anti-His Eu-W1024 and anti-GST allophycocyanin was then added to assay sample wells at final concentrations of 10 nM and 50 nM, respectively, and the reaction incubated for an additional 1.5 hours. […] Compounds that facilitate disruption of a K-Ras:RAF complex were identified as those eliciting a decrease in the TR-FRET ratio relative to DMSO control wells.
(§4) The purpose of this biochemical assay was to measure the ability of test compounds to facilitate ternary complex formation between a nucleotide-loaded K-Ras isoform and Cyclophilin A; the resulting ternary complex disrupts binding to a BRAF^RBDD construct, inhibiting K-Ras signaling through a RAF effector. Data is reported as IC50 values.

KRAS G12C = KRAS G12C (Homo sapiens, UniProt P01116+P62937, G12C); conditions: KRAS G12C; read-out: KRAS G12C FRET data IC50
Text: as §1, §2, §3, §4

KRAS WT = KRAS WT (Homo sapiens, UniProt P01116+P62937); conditions: KRAS WT; read-out: KRAS WT FRET data IC50
Text: as §1, §2, §3, §4

KRAS G13C = KRAS G13C (Homo sapiens, UniProt P01116+P62937, G13C)
Text: as §1, §2, §3, §4

KRAS G12V = KRAS G12V (Homo sapiens, UniProt P01116+P62937, G12V); conditions: KRAS G12V; read-out: KRAS G12V FRET data IC50
Text: as §1, §2, §3, §4

KRAS G12S = KRAS G12S (Homo sapiens, UniProt P01116+P62937, G12S); conditions: read-out: KRAS G12S FRET data, IC50
Text: as §1, §2, §3, §4

[1] = KRAS G13C, read-out: KRAS G13C FRET data IC50

Chain of KRAS G12S (P01116 1-169 isoform P01116-2 G12S limits assumed): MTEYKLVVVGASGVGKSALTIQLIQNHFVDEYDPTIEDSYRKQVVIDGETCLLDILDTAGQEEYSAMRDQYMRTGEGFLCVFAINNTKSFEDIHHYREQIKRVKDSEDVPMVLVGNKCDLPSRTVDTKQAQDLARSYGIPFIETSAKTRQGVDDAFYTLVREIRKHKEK
Chain of KRAS G12S (P62937 whole entry): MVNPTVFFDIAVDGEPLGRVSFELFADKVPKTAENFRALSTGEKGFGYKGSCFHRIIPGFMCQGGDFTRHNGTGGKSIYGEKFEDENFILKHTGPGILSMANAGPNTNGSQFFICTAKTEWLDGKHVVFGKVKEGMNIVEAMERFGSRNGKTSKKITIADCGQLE
Chain of KRAS G12V (P01116 1-169 isoform P01116-2 G12V limits assumed): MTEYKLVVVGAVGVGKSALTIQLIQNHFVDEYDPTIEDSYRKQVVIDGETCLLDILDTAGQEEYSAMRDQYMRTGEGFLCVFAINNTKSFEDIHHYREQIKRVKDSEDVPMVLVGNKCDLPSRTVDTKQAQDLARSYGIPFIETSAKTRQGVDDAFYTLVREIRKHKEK
Chain of KRAS G12V (P62937 whole entry): as the sequence (P62937 whole entry) above
Chain of KRAS WT (P01116 1-169 isoform P01116-2 limits assumed): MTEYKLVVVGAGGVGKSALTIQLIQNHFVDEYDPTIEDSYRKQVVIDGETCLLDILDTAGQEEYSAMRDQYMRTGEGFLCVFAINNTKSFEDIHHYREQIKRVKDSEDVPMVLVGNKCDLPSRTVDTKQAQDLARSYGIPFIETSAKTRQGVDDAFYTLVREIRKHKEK
Chain of KRAS WT (P62937 whole entry): as the sequence (P62937 whole entry) above
Chain of KRAS G12D (P01116 1-169 isoform P01116-2 G12D limits assumed): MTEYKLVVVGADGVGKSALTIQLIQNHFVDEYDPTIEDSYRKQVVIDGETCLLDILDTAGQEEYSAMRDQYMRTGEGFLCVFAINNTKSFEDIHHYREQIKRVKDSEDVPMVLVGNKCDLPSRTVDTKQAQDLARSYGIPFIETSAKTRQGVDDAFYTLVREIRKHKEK
Chain of KRAS G12D (P62937 whole entry): as the sequence (P62937 whole entry) above
Chain of KRAS G13C (P01116 1-169 isoform P01116-2 G13C): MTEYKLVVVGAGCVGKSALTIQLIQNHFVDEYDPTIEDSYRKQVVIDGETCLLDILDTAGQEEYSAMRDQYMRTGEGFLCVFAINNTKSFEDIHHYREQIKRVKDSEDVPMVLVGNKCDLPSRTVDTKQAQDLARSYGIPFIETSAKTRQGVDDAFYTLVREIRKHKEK
Chain of KRAS G13C (P62937 whole entry): as the sequence (P62937 whole entry) above
Chain of KRAS G12C (P01116 1-169 isoform P01116-2 G12C): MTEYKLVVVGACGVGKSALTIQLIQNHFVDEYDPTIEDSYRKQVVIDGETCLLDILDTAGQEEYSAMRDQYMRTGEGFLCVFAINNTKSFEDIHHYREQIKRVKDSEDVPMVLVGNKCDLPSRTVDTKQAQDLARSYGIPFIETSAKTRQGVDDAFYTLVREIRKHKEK
Chain of KRAS G12C (P62937 whole entry): as the sequence (P62937 whole entry) above

Row | SMILES | IC50 (KRAS G12D) | IC50 (KRAS G12C) | IC50 (KRAS WT) | IC50 (KRAS G13C; [1]) | IC50 (KRAS G12V) | IC50 (KRAS G12S) | IC50 (KRAS G13C; read-out: KRAS G13C FRET data, IC50)
1 | C=CC(=O)N1CCC(C(=O)N(C)[C@H](C(=O)N[C@H]2Cc3cc(O)cc(c3)-c3ccc4c(c3)c(c(-c3ccccc3CN(C)C)n4CC)CC(C)(C)COC(=O)[C@@H]3CCCN(N3)C2=O)C(C)C)CC1 [Example A033] | > 10 µM | 100 to 1000 nM | 1000 to 10000 nM | 100 to 1000 nM | > 10000 nM | 1000 to 10000 nM | 
2 | C=CC(=O)N1CC[C@H](C(=O)N(C)[C@H](C(=O)N[C@H]2Cc3cc(O)cc(c3)-c3ccc4c(c3)c(c(-c3ccc(CN(C)C)cc3)n4CC)CC(C)(C)COC(=O)[C@@H]3CCCN(N3)C2=O)C(C)C)C1 [Example A003] | > 10 µM | 100 to 1000 nM | > 10000 nM | 1000 to 10000 nM | 1000 to 10000 nM | 1000 to 10000 nM | 
3 | C=CC(=O)N1CC[C@H](C(=O)N(C)[C@H](C(=O)N[C@H]2Cc3cc(O)cc(c3)-c3ccc4c(c3)c(c(-c3ccncc3CCOC)n4CC)CC(C)(C)COC(=O)[C@@H]3CCCN(N3)C2=O)C(C)C)C1 (single isomer, unassigned) [Example A048] | 1 to 10 µM and > 10 µM | 10 to 100 nM and 1000 to 10000 nM | 1000 to 10000 nM and > 10000 nM | 100 to 1000 nM and > 10000 nM | 100 to 1000 nM and > 10000 nM | 100 to 1000 nM and > 10000 nM | 
4 | C=CC(=O)N1CC[C@H](C(=O)N(C)[C@H](C(=O)N[C@H]2Cc3cc(O)cc(c3)-c3ccc4c(c3)c(c(-c3ccccc3CN(C)C)n4CC)CC(C)(C)COC(=O)[C@@H]3CCCN(N3)C2=O)C(C)C)C1 [Example A005] | 1 to 10 µM | 10 to 100 nM | 100 to 1000 nM | 100 to 1000 nM | 100 to 1000 nM | 100 to 1000 nM | 
5 | C=CC(=O)N1CC[C@H](C(=O)N(C)[C@H](C(=O)N[C@H]2Cc3cc(O)cc(c3)-c3ccc4c(c3)c(c(-c3cnccc3[C@H](C)OC)n4CC)CC(C)(C)COC(=O)[C@@H]3CCCN(N3)C2=O)C(C)C)C1 [Example A112] |  | < 10 nM |  |  |  |  | 
6 | C=CC(=O)N1CC[C@H](C(=O)N(C)[C@H](C(=O)N[C@H]2Cc3cc(O)cc(c3)-c3ccc4c(c3)c(c(-c3ccccc3CCOC)n4C(C)(C)C#N)CC(C)(C)COC(=O)[C@@H]3CCCN(N3)C2=O)C(C)C)C1 [Example A034] | 1 to 10 µM | 100 to 1000 nM | 1000 to 10000 nM | 1000 to 10000 nM | 100 to 1000 nM | 100 to 1000 nM | 
7 | C=CC(=O)N1CC[C@H](C(=O)N(C)[C@H](C(=O)N[C@H]2Cc3cc(O)cc(c3)-c3ccc4c(c3)c(c(C3=C(COC)COCC3)n4CC)CC(C)(C)COC(=O)[C@@H]3CCCN(N3)C2=O)C(C)C)C1 [Example A058] | 1 to 10 µM | 10 to 100 nM | 1000 to 10000 nM | 1000 to 10000 nM | 100 to 1000 nM | 100 to 1000 nM | 
8 | C=CC(=O)N1CCC(C(=O)N(C)[C@H](C(=O)N[C@H]2Cc3cc(O)cc(c3)-c3ccc4c(c3)c(c(-c3ccccc3CCOC)n4CC)CC(C)(C)COC(=O)[C@@H]3CCCN(N3)C2=O)C(C)C)CC1 [Example A014] | > 10 µM | 100 to 1000 nM | 1000 to 10000 nM | 1000 to 10000 nM | > 10000 nM | 1000 to 10000 nM | 
9 | C=CC(=O)N1CC[C@H](C(=O)N(C)[C@H](C(=O)N[C@H]2Cc3cc(O)cc(c3)-c3ccc4c(c3)c(c(-c3ccc(N5CCN(C)CC5)nc3)n4CC)CC(C)(C)COC(=O)[C@@H]3CCCN(N3)C2=O)C(C)C)C1 [Example A089] | > 10 µM |  |  |  |  |  | 
10 | CCn1c(-c2cccnc2COC)c2c3cc(ccc31)-c1cc(O)cc(c1)C[C@H](NC(=O)[C@H](C(C)C)N(C)C(=O)C1CN(C(=O)C#CCN(C)C)C1)C(=O)N1CCC[C@H](N1)C(=O)OCC(C)(C)C2 [Example A097] | 1 to 10 µM | < 10 nM | 100 to 1000 nM | < 10 nM | 100 to 1000 nM | 100 to 1000 nM | 
11 | C=CC(=O)N1CC[C@H](C(=O)N(C)[C@H](C(=O)N[C@H]2Cc3cc(O)cc(c3)-c3ccc4c(c3)c(c(-c3ccc(CN5CCCC5)cc3)n4CC)CC(C)(C)COC(=O)[C@@H]3CCCN(N3)C2=O)C(C)C)C1 [Example A010] | > 10 µM | 100 to 1000 nM | 1000 to 10000 nM | 1000 to 10000 nM | 1000 to 10000 nM | 1000 to 10000 nM | 
12 | CCn1c(-c2ccccc2CCOC)c2c3cc(ccc31)-c1cc(O)cc(c1)C[C@H](NC(=O)[C@H](C(C)C)N(C)C(=O)C1CCN(C(=O)/C=C/CN(C)C)CC1)C(=O)N1CCC[C@H](N1)C(=O)OCC(C)(C)C2 [Example A019] | > 10 µM | 100 to 1000 nM | 1000 to 10000 nM | 1000 to 10000 nM | > 10000 nM | 1000 to 10000 nM | 
13 | CCn1c(-c2cccnc2COC)c2c3cc(ccc31)-c1cc(O)cc(c1)C[C@H](NC(=O)[C@H](C(C)C)N(C)C(=O)[C@H]1CCN(C(=O)/C=C/CN3CCN(C)CC3)C1)C(=O)N1CCC[C@H](N1)C(=O)OCC(C)(C)C2 [Example A072] | 1 to 10 µM | 10 to 100 nM | 100 to 1000 nM | 100 to 1000 nM | 100 to 1000 nM | 100 to 1000 nM | 
14 | C=CC(=O)N1CC[C@H](C(=O)N(C)[C@H](C(=O)N[C@H]2Cc3cc(O)cc(c3)-c3ccc4c(c3)c(c(-c3cccc(CN(C)C)c3)n4CC)CC(C)(C)COC(=O)[C@@H]3CCCN(N3)C2=O)C(C)C)C1 [Example A030] | > 10 µM | 100 to 1000 nM | 1000 to 10000 nM | 1000 to 10000 nM | 1000 to 10000 nM | 1000 to 10000 nM | 
15 | C=CC(=O)N1CC[C@H](C(=O)N(C)[C@H](C(=O)N[C@H]2Cc3cc(O)cc(c3)-c3ccc4c(c3)c(c(-c3ccc5cc(CN(C)C)n(C)c5c3)n4CC)CC(C)(C)COC(=O)[C@@H]3CCCN(N3)C2=O)C(C)C)C1 [Example A035] | > 10 µM | 100 to 1000 nM | 1000 to 10000 nM | 1000 to 10000 nM | 1000 to 10000 nM | 1000 to 10000 nM | 
16 | C=CC(=O)N1CC[C@H](C(=O)N(C)[C@H](C(=O)N[C@H]2Cc3cc(O)cc(c3)-c3ccc4c(c3)c(c(-c3cnn(C)c3)n4CC)CC(C)(C)COC(=O)[C@@H]3CCCN(N3)C2=O)C(C)C)C1 [Example A099] | > 10 µM | 100 to 1000 nM | > 10000 nM | 1000 to 10000 nM | 1000 to 10000 nM | 1000 to 10000 nM | 
17 | C=CC(=O)N1CC2(CCN([C@H](C(=O)N[C@H]3Cc4cc(O)cc(c4)-c4ccc5c(c4)c(c(-c4ccccc4CCOC)n5CC)CC(C)(C)COC(=O)[C@@H]4CCCN(N4)C3=O)C(C)C)C2=O)C1 [Example A031] | > 10 µM | 10 to 100 nM | 1000 to 10000 nM | 10 to 100 nM | 1000 to 10000 nM | 1000 to 10000 nM | 
18 | C=C(C)C(=O)N1CC(N(C)C(=O)N(C)[C@H](C(=O)N[C@H]2Cc3nc(cs3)-c3ccc4c(c3)c(c(-c3cccnc3[C@H](C)OC)n4CC)CC(C)(C)COC(=O)[C@@H]3CCCN(N3)C2=O)C(C)C)C1 (atropisomer, axis not shown) [Example A360] | 1 to 10 µM |  |  |  |  |  | 
19 | CCn1c(-c2cccnc2[C@H](C)OC)c2c3cc(ccc31)-c1csc(n1)C[C@H](NC(=O)[C@H](C(C)C)N(C)C(=O)O[C@H]1CCN(C)C1)C(=O)N1CCC[C@H](N1)C(=O)OCC(C)(C)C2 [Example A173] |  |  |  |  |  |  | 1000 to 10000 nM

Source: patent US20230233569A1 (Revolution Medicines, Inc., priority 2020, published 2023)
